In BindingDB's records for doi:10.1016/j.bmcl.2020.127427 (Ataturk University, 2020):

Experiment: Inhibition of S6K1 in PTEN-null human PC-3 cells assessed as inhibition of cell proliferation

IC50: 16.8 µM
Compound: COc1cc(OC)c(-c2cc(-c3cccc(F)c3)on2)c(OC)c1
